Results on one compound are retold here after article PMC7442744 (Journal of the American Chemical Society, 2020).

For the experiment, the target named is human SQOR (sulfide quinone oxidoreductase) (Homo sapiens, UniProt Q9Y6N5). Nature of the experiment: absorption spectroscopy, charge transfer complex formation. Conditions: covalent; 5 mM sulfite, 5 μM native SQOR, 20 °C, 1 min. In kind it is binding.
Chain of human SQOR (sulfide quinone oxidoreductase) (Q9Y6N5 42-450): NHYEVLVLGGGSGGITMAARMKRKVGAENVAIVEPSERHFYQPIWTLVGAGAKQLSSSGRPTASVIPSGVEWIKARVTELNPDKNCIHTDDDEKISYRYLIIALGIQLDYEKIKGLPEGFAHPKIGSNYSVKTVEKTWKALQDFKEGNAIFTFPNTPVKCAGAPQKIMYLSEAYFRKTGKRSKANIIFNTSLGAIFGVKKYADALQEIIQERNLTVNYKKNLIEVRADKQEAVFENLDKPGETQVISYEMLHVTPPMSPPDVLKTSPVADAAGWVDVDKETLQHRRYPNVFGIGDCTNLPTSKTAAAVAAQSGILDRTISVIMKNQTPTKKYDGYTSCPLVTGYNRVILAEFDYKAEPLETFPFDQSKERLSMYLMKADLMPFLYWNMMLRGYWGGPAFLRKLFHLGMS

For the compound `O=S(O)O` [sulfite], the “absorption spectroscopy, charge transfer complex formation” value is on record as “sulfite treatment, which forms a strong CT complex when added to native SQOR”.
